Several values for one entry are separate records, joined by “and”; a condition that tells them apart may be missing. Equal entries are not always repeated.
Assays:
EGFR = EGFR (Homo sapiens, UniProt P00533); test: In vitro EGFR tyrosine kinase inhibitory assay (Z'-LYTE, SelectScreen); format: biochemical; conditions: for inhibition at 0.0001 µM: 0.1 nM compound; for inhibition at 0.0001 µM / inhibition at 0.001 µM / inhibition at 0.01 µM / inhibition at 0.1 µM / inhibition at 1 µM: 10 μM ATP, read-out: % Inhibition mean, EGFR (ErbB1); for inhibition at 0.001 µM: 1 nM compound; for inhibition at 0.01 µM: 10 nM compound; for inhibition at 0.1 µM: 100 nM compound; for inhibition at 1 µM: 1000 nM compound; for IC50: read-out: IC50 in enzyme assays EGFR
EGFR, sequence (P00533 25-1210): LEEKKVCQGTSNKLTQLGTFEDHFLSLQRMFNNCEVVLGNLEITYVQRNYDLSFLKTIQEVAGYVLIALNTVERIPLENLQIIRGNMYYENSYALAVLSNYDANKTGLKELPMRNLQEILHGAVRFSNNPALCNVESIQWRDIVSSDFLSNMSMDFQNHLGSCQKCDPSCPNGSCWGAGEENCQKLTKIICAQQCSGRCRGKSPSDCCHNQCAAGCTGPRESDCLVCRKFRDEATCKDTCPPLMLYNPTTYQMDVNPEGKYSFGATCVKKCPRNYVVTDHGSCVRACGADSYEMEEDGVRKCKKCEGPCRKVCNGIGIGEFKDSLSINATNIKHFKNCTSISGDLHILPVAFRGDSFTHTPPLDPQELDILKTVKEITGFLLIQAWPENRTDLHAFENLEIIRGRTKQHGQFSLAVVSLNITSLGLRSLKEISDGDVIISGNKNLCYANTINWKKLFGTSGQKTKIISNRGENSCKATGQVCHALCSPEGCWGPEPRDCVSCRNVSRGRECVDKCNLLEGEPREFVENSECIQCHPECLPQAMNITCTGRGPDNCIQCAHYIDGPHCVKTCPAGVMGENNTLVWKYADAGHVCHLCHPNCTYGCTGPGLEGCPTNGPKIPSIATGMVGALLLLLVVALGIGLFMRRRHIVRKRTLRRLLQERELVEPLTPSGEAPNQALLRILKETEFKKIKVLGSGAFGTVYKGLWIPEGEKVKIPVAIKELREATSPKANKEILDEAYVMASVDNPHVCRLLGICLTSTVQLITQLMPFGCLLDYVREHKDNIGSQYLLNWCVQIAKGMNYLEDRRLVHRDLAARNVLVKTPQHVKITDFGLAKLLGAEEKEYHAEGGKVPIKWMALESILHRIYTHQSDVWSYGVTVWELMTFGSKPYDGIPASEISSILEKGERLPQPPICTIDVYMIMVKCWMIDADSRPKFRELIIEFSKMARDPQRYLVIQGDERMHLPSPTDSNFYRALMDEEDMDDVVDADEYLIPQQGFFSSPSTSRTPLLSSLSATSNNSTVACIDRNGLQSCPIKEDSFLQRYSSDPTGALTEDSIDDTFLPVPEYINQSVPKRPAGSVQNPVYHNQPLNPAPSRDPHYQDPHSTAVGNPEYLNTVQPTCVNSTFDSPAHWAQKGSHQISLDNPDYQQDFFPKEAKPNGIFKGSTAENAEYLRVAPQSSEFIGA
Outline: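 Z'-LYTE fluorescence coupled-enzyme format, read-out based on differential protease cleavage of phosphorylated vs non-phosphorylated peptide. Compounds screened at 10 µM single dose for % inhibition, then selected ones tested at 0.1 nM–10 µM for IC50 by curve fitting.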

SW-620 = test: NCI one-dose screen; format: cell-based, human; conditions: Colon SW-620, 10 µM single dose
Outline: (§1)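 Following the standard NCI-60 protocol, compounds were applied once at 10 μM to all 60 cancer lines. Read-out is percent growth versus untreated controls, expressed as inhibition %.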

UACC-257 = test: NCI one-dose screen; format: cell-based, human; conditions: Melanoma UACC-257, 10 µM single dose
Outline: as §1

HOP-62 = test: NCI one-dose screen; format: cell-based, human; conditions: NSCLC HOP-62, 10 µM single dose
Outline: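 Compounds were tested at a single dose of 10 μM across the full NCI-60 cell line panel. Growth was expressed as percent growth relative to untreated control cells, reported as percent inhibition.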

NCI-H460 = test: NCI one-dose screen; format: cell-based, human; conditions: NSCLC NCI-H460, 10 µM single dose
Outline: (§2)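 At 10 μM, a single concentration, compounds were evaluated for antiproliferative effect in the NCI 60-line screen, with growth expressed relative to untreated control cells.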

IGROV1 = test: NCI one-dose screen; format: cell-based, human; conditions: Ovarian IGROV1, 10 µM single dose
Outline: as §2

COLO 205 = test: NCI one-dose screen; format: cell-based, human; conditions: Colon COLO 205, 10 µM single dose
Outline: as §2

PC-3 = test: NCI one-dose screen; format: cell-based, human; conditions: Prostate PC-3, 10 µM single dose
Outline: as §1

EKVX = test: NCI one-dose screen; format: cell-based, human; conditions: NSCLC EKVX; for Growth Percent: 10 µM single dose
Outline: (§3)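 In vitro antiproliferative testing: NCI-60 panel, initial single dose 10 μM, inhibition % derived from percent growth of treated versus untreated control cells.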

SN12C = test: NCI one-dose screen; format: cell-based, human; conditions: Renal SN12C, 10 µM single dose
Outline: as §2

K-562 = test: NCI one-dose screen; format: cell-based, human; conditions: Leukemia K-562, 10 µM single dose
Outline: as §2

ACHN = test: NCI one-dose screen; format: cell-based, human; conditions: Renal ACHN, 10 µM single dose
Outline: as §2

MCF7 = test: NCI one-dose screen; format: cell-based, human; conditions: Breast MCF7, 10 µM single dose
Outline: (§4)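 Screening used the full NCI panel of 60 cancer cell lines with compounds dosed once at 10 μM; the reported value is percent growth inhibition versus untreated controls.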

NCI-H226 = test: NCI one-dose screen; format: cell-based, human; conditions: NSCLC NCI-H226, 10 µM single dose
Outline: as §3

HCC-2998 = test: NCI one-dose screen; format: cell-based, human; conditions: Colon HCC-2998, 10 µM single dose
Outline: as §2

MDA-MB-231/ATCC = test: NCI one-dose screen; format: cell-based, human; conditions: Breast MDA-MB-231/ATCC, 10 µM single dose
Outline: as §2

SK-MEL-5 = test: NCI one-dose screen; format: cell-based, human; conditions: Melanoma SK-MEL-5, 10 µM single dose
Outline: as §2

SK-OV-3 = test: NCI one-dose screen; format: cell-based, human; conditions: Ovarian SK-OV-3, 10 µM single dose
Outline: as §2

MDA-MB-468 = test: NCI one-dose screen; format: cell-based, human; conditions: Breast MDA-MB-468, 10 µM single dose
Outline: as §4

OVCAR-5 = test: NCI one-dose screen; format: cell-based, human; conditions: Ovarian OVCAR-5, 10 µM single dose
Outline: as §2

MALME-3M = test: NCI one-dose screen; format: cell-based, human; conditions: Melanoma MALME-3M, 10 µM single dose
Outline: as §2

RXF 393 = test: NCI one-dose screen; format: cell-based, human; conditions: Renal RXF 393, 10 µM single dose
Outline: as §2

LOX IMVI = test: NCI one-dose screen; format: cell-based, human; conditions: Melanoma LOX IMVI, 10 µM single dose
Outline: as §2

T-47D = test: NCI one-dose screen; format: cell-based, human; conditions: Breast T-47D, 10 µM single dose
Outline: as §2

full NCI 60 cell panel = test: NCI one-dose screen, whole panel statistics; format: cell-based, human; conditions: 1.00E-5 Molar; for Mean Growth Percent: mean over panel
Outline: as §1

Structure (SMILES): Cc1c(C(=O)NCCCC(=O)NO)sc2ncnc(Nc3ccccc3)c12 [Compound 20b, N-(4-(hydroxyamino)-4-oxobutyl)-5-methyl-4-(phenylamino)thieno[2,3-d]pyrimidine-6-carboxamide]
- inhibition at 0.0001 µM (EGFR): 2%
- inhibition at 0.001 µM (EGFR): 1%
- inhibition at 0.01 µM (EGFR): 7%
- inhibition at 0.1 µM (EGFR): 35%
- inhibition at 1 µM (EGFR): 85%
- inhibition at 10 µM (EGFR; 10 µM single dose): 92%
- IC50 (EGFR): 155 nM
- Growth Percent (SW-620): 102.0% and 102.07%
- Growth Percent (UACC-257): 103.9% and 103.93%
- Growth Percent (HOP-62): 100.8% and 100.81%
- Growth Percent (NCI-H460): 99.4% and 99.46%
- Growth Percent (IGROV1): 107.3% and 107.35%
- Growth Percent (COLO 205): 106.5% and 106.57%
- Growth Percent (PC-3): 108%
- Growth Percent (EKVX): 89.6% and 89.65%
- Growth Percent (SN12C): 100.3% and 100.34%
- Growth Percent (K-562): 104.9% and 104.96%
- Growth Percent (ACHN): 103.8% and 103.87%
- Growth Percent (MCF7): 92.1% and 92.13%
- Growth Percent (NCI-H226): 97.5% and 97.52%
- Growth Percent (HCC-2998): 104.7% and 104.78%
- Growth Percent (MDA-MB-231/ATCC): 110.9% and 110.91%
- Growth Percent (SK-MEL-5): 97.6% and 97.62%
- Growth Percent (SK-OV-3): 125.1% and 125.12%
- Growth Percent (MDA-MB-468): 98.0% and 98.03%
- Growth Percent (OVCAR-5): 100.2% and 100.23%
- Growth Percent (MALME-3M): 111.9% and 111.93%
- Growth Percent (RXF 393): 98.6% and 98.66%
- Growth Percent (LOX IMVI): 96.5% and 96.54%
- Growth Percent (T-47D): 104.4% and 104.47%
- Delta (one dose mean graph) (full NCI 60 cell panel): 14.62%
- Range (one dose mean graph) (full NCI 60 cell panel): 40.59%
- Mean Growth Percent (full NCI 60 cell panel): 102.91%
- melting point: 205 °C

Structure (SMILES): Cc1c(C(=O)NO)sc2ncnc(Nc3ccc(Cl)cc3)c12 [Compound 15c, 4–(4-chlorophenylamino)-N-hydroxy-5-methylthieno[2,3-d]pyrimidine-6-carboxamide]
- inhibition at 0.0001 µM (EGFR): 0%
- inhibition at 0.001 µM (EGFR): 5%
- inhibition at 0.01 µM (EGFR): 34%
- inhibition at 0.1 µM (EGFR): 81%
- inhibition at 1 µM (EGFR): 95%
- Mean % inhibition EGFR (EGFR; 10 µM single dose): 97%
- IC50 (EGFR): 19 nM
- Growth Percent (SW-620): 102.6% and 102.65%
- Growth Percent (UACC-257): 110.0% and 110.09%
- Growth Percent (HOP-62): 92.8% and 92.81%
- Growth Percent (NCI-H460): 98.9% and 98.93%
- Growth Percent (IGROV1): 72.7% and 72.73%
- Growth Percent (COLO 205): 116.7% and 116.75%
- Growth Percent (PC-3): 97.6% and 97.64%
- inhibition at 10 µM (EKVX; Homo sapiens, 10 μM): 20.6%
- Growth Percent (EKVX): 79.4% and 79.43%
- Growth Percent (SN12C): 98.6% and 98.63%
- Growth Percent (K-562): 105.0%
- Growth Percent (ACHN): 97.3% and 97.37%
- Growth Percent (MCF7): 88.6%
- Growth Percent (NCI-H226): 85.6% and 85.66%
- Growth Percent (HCC-2998): 115.4% and 115.42%
- Growth Percent (MDA-MB-231/ATCC): 88.1% and 88.18%
- Growth Percent (SK-MEL-5): 96.9% and 96.96%
- Growth Percent (SK-OV-3): 93.4% and 93.42%
- Growth Percent (MDA-MB-468): 102.9% and 102.91%
- Growth Percent (OVCAR-5): 107.6% and 107.61%
- Growth Percent (MALME-3M): 102.3% and 102.31%
- Growth Percent (RXF 393): 106.7% and 106.75%
- Growth Percent (LOX IMVI): 95.8% and 95.88%
- Growth Percent (T-47D): 90.6% and 90.65%
- Delta (one dose mean graph) (full NCI 60 cell panel): 28.53%
- Range (one dose mean graph) (full NCI 60 cell panel): 83.38%
- Mean Growth Percent (full NCI 60 cell panel): 99.73%
- melting point: 349 °C

Structure (SMILES): Cc1c(C(=O)NCCC(=O)NO)sc2ncnc(Nc3ccccc3)c12 [Compound 19b, N-(3-(hydroxyamino)-3-oxopropyl)-5-methyl-4-(phenylamino)thieno[2,3-d]pyrimidine-6-carboxamide]
- inhibition at 10 µM (EGFR; 10 µM single dose): 76%
- Growth Percent (SW-620): 99.6% and 99.64%
- Growth Percent (UACC-257): 105.0% and 105.04%
- Growth Percent (HOP-62): 100.4% and 100.46%
- Growth Percent (NCI-H460): 100.8% and 100.82%
- Growth Percent (IGROV1): 101.8% and 101.82%
- Growth Percent (COLO 205): 110.7% and 110.74%
- Growth Percent (PC-3): 105.1% and 105.18%
- Growth Percent (EKVX): 87.3% and 87.34%
- Growth Percent (SN12C): 98.5% and 98.51%
- Growth Percent (K-562): 101.9% and 101.92%
- Growth Percent (ACHN): 106.3% and 106.37%
- Growth Percent (MCF7): 92.3% and 92.31%
- Growth Percent (NCI-H226): 89.4% and 89.44%
- Growth Percent (HCC-2998): 97.7%
- Growth Percent (MDA-MB-231/ATCC): 101.7% and 101.73%
- Growth Percent (SK-MEL-5): 94.4% and 94.42%
- Growth Percent (SK-OV-3): 122.0% and 122.03%
- Growth Percent (MDA-MB-468): 92.2% and 92.23%
- Growth Percent (OVCAR-5): 102.0% and 102.09%
- Growth Percent (MALME-3M): 102.5% and 102.54%
- Growth Percent (RXF 393): 94.1% and 94.17%
- Growth Percent (LOX IMVI): 93.7%
- Growth Percent (T-47D): 101.18%
- Delta (one dose mean graph) (full NCI 60 cell panel): 19.11%
- Range (one dose mean graph) (full NCI 60 cell panel): 40.57%
- Mean Growth Percent (full NCI 60 cell panel): 100.57%
- melting point: 267 to 270 °C
